Entries after “also recorded” stand apart in the source; their conditions may differ.
Key:
[1] = system: infarcted and nonischemic myocardium; details: cited from earlier work
[2] = in vivo; cited from earlier work
[3] = system: infarcted and non-ischemic myocardium; assay: Microdialysis kinetics of Gd and Dy in extracellular space of pig myocardium (Example 5)
Experimental: (§1) Myocardial infarction was induced in 5 anaesthetized pigs of either sex (weight 25-30 kg) by ligating a diagonal branch of the left anterior descending artery (LAD), at thoracotomy. Microdialysate probes were inserted in ischemic and non-ischemic myocardium. The pigs were sacrificed 2 hours after administration of contrast media. 4 hour post occlusion Gd-DTPA-BMA (0.3 mmol/kg) and Dy-DTPA-BMA (1.0 mmol/kg) were simultaneously administered in vivo with an injection time of one minute. The total occlusion time was thus 6 hours.
(§2) The microdialysate was collected every 10 minutes and measured for gadolinium and dysprosium using inductively coupled plasma atomic emission spectrometry (ICP-AES). The microdialysis equipment consisted of a CMA®/20 microdialysis probe with a 10 mm flexible membrane and a diameter of 0.5 mm (CMA AB, Stockholm, Sweden). […] The probe was perfused with a Krebs-Ringer phosphate buffer (pH 7.4) at a speed of 2 μl/min and a dead space, in the system, of 10 μl. […] One probe was inserted into the central part of the ischemic area and another probe was placed in non-ischemic myocardium in the lateral wall using the Seldinger technique to minimize mechanical injury to myocardium and probe membrane. A CMA® microdialysis pump (CMA 100) was used with two syringes to perfuse the probes.
(§3) In addition, gadolinium and dysprosium were determined in dialysates from five pigs by ICP-AES. Twenty μl portions were sampled in plastic tubes and kept frozen until analysis. The samples were diluted to 5.02 ml with ultra-pure water. To enhance the sensitivity of measurements, an ultrasonic nebulizer was used instead of the pneumatic one. The limit of detection for the method is about 2 μg/l for both gadolinium and dysprosium in the measuring solution. This means that about 3 μmol/l can be detected in the dialysates.

[4] = system: myocardial infarction; details: first positive, second negative agent, sequential; cited from earlier work
[5] = system: normal and infarcted myocardium; details: rat, in vivo
Experimental: Thirty seven Sprague Dawley rats (200-400 gm) were anaesthetized by an intraperitoneal injection of sodium pentobarbital (50 mg/kg body weight). After tracheostomy, animals were ventilated using a small animal respirator. The heart was exposed following a left thoracotomy through the 4th intercostal space and a surgical suture was used to ligate the anterior branch of the left coronary artery near its origin beneath the left atrial appendage using a snare ligature. The presence of occlusion was visually confirmed by noting the development of myocardial cyanosis. After 1 hour occlusion, reperfusion was initiated by loosening the snare ligature. A catheter was placed into a femoral vein to inject contrast media. All animals which received contrast agent were administered doses at 45 minutes of reflow. After 1 hour reperfusion, each heart was excised and rinsed in 0.9% saline, patted dry with gauze, and a cotton swab was inserted into the left ventricular cavity to expand the chamber. Each heart was wrapped in clear plastic wrap to minimise dehydration during imaging.
To group 1 rats (n=9) were administered 0.2 mmol/kg of GdDTPA-BMA immediately followed by 1.0 mmol/kg of DyDTPA-BMA. Group 2 (n=7) received no contrast agents. Two spin-echo images were obtained from the midventricle of each heart, a T1-weighted image with TR/TE=300/20 and NEX=4, and T2-weighted image with TR/TE=3000/60 and NEX=2. After imaging, each heart was sliced at the midventricular level and soaked in a 2% solution of TTC at 37° C. for 15 minutes to define myocardial infarction.
Samples of normal and infarcted myocardium were retained for analysis of Gd and Dy content by means of ICP-MS.

[6] = system: infarcted and non-ischemic myocardium; assay: MR imaging of excised pig hearts, double contrast (Example 5); format: in vivo
Experimental: The total occlusion time was thus 6 hours.
Following sacrifice, the hearts were extirpated and rinsed in isotonic saline to remove remaining blood. The hearts were examined ex vivo at ambient temperature in the MR equipment and then cut into approximately 8 mm thick transverse slices and soaked for 10-20 minutes in a 1% aqueous solution of triphenyltetrazolium chloride (TTC) at 37° C. TTC stains non-ischemic myocardium brick red. The slices were inspected visually for unstained areas of infarction.
MR images were obtained in an identical manner to that described in Example 4.
In the transverse images, three ROI's were placed in infarcted myocardium. Four ROI's were placed in non-ischemic myocardium, two in the anterior wall and two in the posterior wall of the left ventricle. The mean signal intensity (S) was measured in each ROI. One ROI was placed anterior to the heart in an area free from visible artefacts, in order to measure the standard deviation (SD) of the background signal. These measurements were used to calculate the contrast (C) and contrast-to-noise (C/N) ratios between infarcted (inf) and non-ischemic (nonisch) myocardium using the formulae defined in Example 4.
In each heart, non-ischemic myocardium and infarction were represented by a mean value from measurements in two slices.

[7] = system: infarcted and non-ischemic myocardium; details: pig, in vivo
Experimental: as §1, §2, §3

[8] = system: Human blood samples; assay: In vitro MR imaging of contrast agent doped human blood samples, viable vs freeze-injured cells (Example 2); format: cell-based; details: all sequences
Experimental: Human blood samples with different hematocrit readings (Ht) of 27%, 45% and 69% were prepared to provide sample models for different levels of compartmentalization between intracellular and extracellular fluids. To initiate cellular level injury, samples with these Ht readings were frozen to effect cell membrane destruction. Finally a control sample of cell free plasma was also used.
To the test samples were added (a) a positive ECF contrast agent (GdDTPA-BMA at a dosage corresponding to 0.2 mmol Gd/kg); (b) a negative ECF contrast agent (DyDTPA-BMA at a dosage corresponding to 0.6 mmol Dy/kg); and (c) a positive ECF contrast agent and a negative ECF contrast agent (GdDTPA-BMA and DyDTPA-BMA at dosages corresponding to 0.2 mmol Gd/kg and 0.6 mmol Dy/kg).
These doped samples, and controls to which no contrast agent was added, were imaged together at ambient temperature in the head coil of a Siemens Magnetom operating at 0.5 T using T1 -weighted (TR/TE 500/30 ms), T2 -weighted (TR/TE 1500/90 ms) and proton density-weighted (TR/TE 1500/30 ms) echo sequences. The signal intensity for each contrast agent doped sample was normalized to the corresponding undoped sample and the results are set forth as ratios in FIGS. 1 to 3 hereto, squares, circles and diamonds representing the ratios for T1 -weighted, PD-weighted and T2 -weighted sequences respectively.

[9] = system: normal and reperfused infarcted myocardium; assay: MR imaging and T2/T2* relaxation of rat hearts after single agents, protocol 2 (Example 6); format: in vivo, Sprague Dawley rats
Text: Images were acquired at room temprature using a GE CSI 2.0 T system. Each heart was positioned with its long axis parallel to the main magnetic field such that axial images would present short axis views of the heart. All images were obtained using a slice thickness of 2 mm, FOV of 30 mm, and a raw data matrix of 128×256 interpolated to 256×256 during reconstruction. TR/TE settings used for spin echo images are indicated below. Gradient echo images were obtained using a TR of 600 ms, with the radio frequency pulse power set very low such that no signal saturation was evident following multiple pulses and images would contain no T1 weighting.
Group 3 (n=11) received 1.0 mmol/kg DyDTPA-BMA, group 4 (n=7) received 0.2 mmol/kg of GdDTPA-BMA and group 5 (n=7) received no contrast agents. The imaging protocol for each heart consisted of spin echo T1-weighted (TR/TE=300/20 ms, NEX=4) and T2-weighted (TR/TE=4000/80 ms; NEX=2), a set of four-echo T2-weighted images (TR=4000 ms, TE=20, 40, 60 and 80 ms, NEX=2) for estimation of regional T2 values, and a set of gradient-recalled images (TE=10, 15, 20 and 30 ms, NEX=4) for estimation of region T2* values. TTC staining of the heart was performed to verify the presence of infarction.
Signal intensities were measured from ROIs selected over infarcted and uninfarcted myocardium. The same ROIs were applied to all images obained from each heart.
A series of gradient recalled and spin echo MR images were obtained to resolve the effects of GdDTPA-BMA on T2-weighted images and DyDTPA-BMA on T1-weighted images and also to more thoroughly characterize the differences in contrast media-induced T2 and T2* enhancement between infarcted and normal myocardium. Table III summarises the observed alterations in regional signal intensity and relaxation rates following administration of either GdDTPA-BMA or DyDTPA-BMA.

[10] = system: infarcted and nonischemic myocardium; assay: Ex vivo MR imaging of pig hearts, myocardial infarction model (Example 4); format: in vivo; details: Dy DTPA-BMA 1.0 mmol/kg plus Gd DTPA-BMA 0.3 mmol/kg
Experimental: A control group received no contrast agent.
Following sacrifice, the hearts were extirpated and rinsed in isotonic saline to remove remaining blood. The hearts were examined ex vivo at ambient temperature in the MR equipment and then cut into thin transverse slices and soaked for about 20 minutes in a 1% aqueous solution of triphenyltetrazolium chloride (TTC) at 37° C. The slices were then visually inspected for unstained areas corresponding to infarction.
MR examination was performed in a superconductive whole body equipment (Siemens Magnetom) operating at 0.5 T. The hearts were investigated with saggital and transverse multi-slice spin-echo images with TR/TE of 500/30 (two excitations), 1500/30,70 and 1500/30,120 (single excitations) using a saddle-shaped coil with a diameter of 13 cm. The following parameters were used: Slice thickness 7 mm. Interslice gap 20%. Acquisition matrix 256×256 giving a resolution of 0.7×0.7 mm.
In the transverse images regions of interest (ROI's) were placed in infarcted and nonischemic myocardium, in a corn oil phantom and in front of the heart (noise). The mean signal intensity (SI) was measured in each ROI.
In addition, the SD was measured in the noise. […]

[11] = four-echo T2-weighted, TR=4000 ms
[12] = gradient recalled echo images, Dy 1.0 mmol/kg n=11 or Gd 0.2 mmol/kg n=7
[13] = gradient-recalled images, TE=10, 15, 20 and 30 ms
[14] = spin echo T1 weighted, TR/TE=300/20 ms
[15] = spin echo T2 weighted, TR/TE=4000/80 ms

SMILES: O=C([O-])CN(CCN(CC(=O)[O-])CC(=O)O)CCN(CC(=O)[O-])CC(=O)O.[Gd+3] [Gd-DTPA, reference compound]
- distribution / enhancement in 6-hour-old myocardial infarction ([1]; porcine model): infarct accumulation

SMILES: CNC[C@H](O)[C@@H](O)[C@H](O)[C@H](O)CO.CNC[C@H](O)[C@@H](O)[C@H](O)[C@H](O)CO.O=C([O-])CN(CCN(CC(=O)[O-])CC(=O)O)CCN(CC(=O)[O-])CC(=O)O.[Gd+3] [Gd DTPA-dimeglumine]
- distribution after intravenous administration [2]: rapidly distributes throughout the extracellular fluid (ECF)

SMILES: CNC(=O)CN(CCN(CCN(CC(=O)[O-])CC(=O)NC)CC(=O)[O-])CC(=O)[O-].[Dy+3] [DyDTPA-BMA]
- concentration course in dialysate ([3]; infarcted myocardium): increased gradually
- duration of plateau in dialysate ([3]; infarcted myocardium): 60 min
- concentration in dialysate after early peak ([3]; non-ischemic myocardium): diminished with time
- distribution in infarcted heart [4]: allowed essentially only to distribute to the normal tissue resulting in the generation of enhanced contrast between normal and infarcted tissue
- metal content in infarcted region vs normal myocardium [5]: greater amount of dysprosium in the infarcted zone
- concentration ratio, reperfused infarcted vs normal myocardium ([5]; 15 min): approximately 2.5 fold
- counteraction of Gd-DTPA-BMA induced signal enhancement by Dy-DTPA-BMA ([6]; all investigated sequences, infarcted tissue): not significantly counteracted; also recorded: did not counteract the Gd-DTPA-BMA induced enhancement of the infarcted tissue
- susceptibility induced (Dy induced) signal intensity reduction in infarctions ([6]; infarctions): lack of detectable susceptibility induced (i.e. Dy induced) signal intensity reduction effects in the infarctions
- time to plateau concentration in dialysate [7]: 20 to 30 min
- time of early peak in dialysate ([7]; iv): ≤ 10 min
- infarct detection / conspicuity ([1]; T1- and T2-weighted sequences): improves the infarct detection due to susceptibility-induced loss of signal intensity in nonischemic myocardium
- signal effect of accumulation in infarcted myocardium ([1]; infarcted myocardium): does not seem to result in signal loss but maintains a persistent intensity relative to the depleted signal in normal myocardium
- signal intensity, "viable" sample ([8]; most markedly T2-weighted): signal intensity fell with increasing Ht reading
- signal intensity, "non-viable" samples ([8]; frozen samples): no effect
- differential enhancement of reperfused infarction, T1-weighted ([9]; T1-weighted images): significant differential enhancement
- contrast between infarcted and normal region vs both agents ([9]; T2-weighted images): greater contrast between the two regions than was noted when both agents were administered
- delineation of infarcted region, T2-weighted ([9]; T2-weighted images): delineated by both agents
- signal intensity of infarcted region, T2-weighted ([9]; T2-weighted images): much less reduction in signal of the infarcted region
- signal intensity of normal region, T2-weighted ([9]; T2-weighted images): great suppression of normal myocardium signal
- T2, infarct [9, 11]: 35.8 ± 1.0 ms
- T2, normal myocardium [9, 11]: 25.9 ± 0.6 ms
- GRE signal intensity, infarct [9, 12]: 191 ± 34
- GRE signal intensity, normal myocardium [9, 12]: 105 ± 18
- T2*, infarct [9, 13]: 17.7 ± 1.2 ms
- T2*, normal myocardium [9, 13]: 9.4 ± 0.5 ms
- SE T1 signal intensity, infarct [9, 14]: 141 ± 14
- SE T1 signal intensity, normal myocardium [9, 14]: 88 ± 7
- SE T2 signal intensity, infarct [9, 15]: 42 ± 4
- SE T2 signal intensity, normal myocardium [9, 15]: 12 ± 1
- effect of negative agent on T1 enhancing effect of positive agent in infarcted area [10]: does not cancel the T1 enhancing effect of the positive agent in the infarcted area

Source: US5869023A, “Composition for MRI comprising both a positive and a negative contrast agent” (Nycomed Imaging AS, priority 1993, dated 1999)
